Source: patent US5641802A, “Tachyquinine antagonists, their preparation and use in pharmaceutical formulations” (A. Menarini Industrie Farmaceutiche Reiunite S.r.l., priority 1992, dated 1997)

Molecular target: T1, NK1 receptor (Homo sapiens, UniProt P25103)
T1 construct: endogenous in cells; host or cells: IM9 cells (intact)
Assay: [3H] SP binding assay in IM9 Cell Line (Substance P antagonism)
Conditions: intact IM9 cells, 60 min, room temperature, compound at 1 μM
Protocol: Assessment of biological activity (NK1 antagonism) of compounds of this invention was performed by means of the following binding and functional assays:
[3H] SP binding assay in IM9 Cell Line
Binding assay was performed with intact cells as described by Payan et al. (J. Immunology 133, 3260 (1984)). Cells were washed with buffer A, (pH 7.5), containing (in mM) Tris-HCl 50, and NaCl 150, plus 0.02% BSA, and then resuspended in assay buffer (buffer A supplemented with protease inhibitors) at a concentration of 1×10^7 cells/ml. Cells were incubated with [3H]SP in a final volume of 0.5 ml for 60 min. at room temperature. Nonspecific binding was determined in the presence of […] nonradioactive SP. The assay mixture was set up in microfuge tubes that had been presoaked in a 0.5% BSA solution for at least 3 hours. Bound and free [^3 H]SP were separated by pelleting the cells in a microfuge (6 min.; 12000 g); the supernatant was then removed by aspiration. For competition binding experiments, IM9 cells were incubated in triplicate with […] [^3 H]SP (the approximate Kd value, as determined in saturation binding experiments); competing ligands were typically added in six concentrations (1:10 dilutions in assay buffer) to give full competition curves.

T1 sequence (P25103 whole entry): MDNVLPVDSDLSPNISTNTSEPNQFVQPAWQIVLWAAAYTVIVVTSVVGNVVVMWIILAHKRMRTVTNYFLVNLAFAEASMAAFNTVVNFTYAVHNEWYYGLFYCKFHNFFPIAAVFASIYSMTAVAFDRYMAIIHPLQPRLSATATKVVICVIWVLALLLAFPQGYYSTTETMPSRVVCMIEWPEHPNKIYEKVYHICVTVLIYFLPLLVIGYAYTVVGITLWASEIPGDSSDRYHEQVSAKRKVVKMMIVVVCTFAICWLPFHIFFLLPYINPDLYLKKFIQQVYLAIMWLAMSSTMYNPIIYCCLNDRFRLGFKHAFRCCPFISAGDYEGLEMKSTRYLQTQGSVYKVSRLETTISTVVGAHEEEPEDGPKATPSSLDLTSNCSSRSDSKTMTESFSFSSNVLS

| Compound | inhibition at 1 µM [%] | % of binding inhibition at 1 μM (1 µM) [%] |
| --- | --- | --- |
| CN(Cc1ccccc1)C(=O)[C@H](Cc1ccc2ccccc2c1)NC(=O)C1C2CCC(C2)C1NC(=O)c1c[nH]c2ccccc12 (stereo partly drawn) [Example 10 fast, N^α [N-(1H-indol-3-yl-carbonyl)-3S-endoaminobicyclo(2,2,1)heptyl-2R endocarbonyl]-L-3-(2-naphthyl)alanyl-N-methyl-N-benzylamide and N^α [N-(1H-indol-3-yl-carbonyl)-3R-endoaminobicyclo(2,2,1)heptyl-2S-endocarbonyl]-L-3-(2-naphthyl)alanyl-N-methyl-N-benzylamide] | 95 |  |
| CN(Cc1ccccc1)C(=O)[C@H](Cc1ccccc1)NC(=O)C1CCCCC1NC(=O)c1c[nH]c2ccccc12 (stereo partly drawn) [Example 2 fast, N-methyl-N-benzylamide of N^α -{[N(indol-3-yl-carbonyl)(R,S)-cis-2-amino]cyclohexanoyl}-L-phenylalanine and N-methyl-N-benzylamide of N^α -{[N(indol-3-yl-carbonyl)(S,R)-cis-2-amino]cyclohexanoyl}-L-phenylalanine] |  | 100 |
| CN(Cc1ccccc1)C(=O)[C@@H](Cc1ccc2ccccc2c1)NC(=O)C1CCCCC1NC(=O)c1ccccc1 (stereo partly drawn) [Example 17 fast, N^α [N-(benzoyl)-(R,S)cis-2-aminocyclohexyl-carbonyl]-D-3-(2-naphthyl)alanyl-N-methyl-N-benzylamide and N^α [N-(benzoyl)-(S,R)cis-2-aminocyclohexyl-carbonyl]-D-3-(2-naphthyl)alanyl-N-methyl-N-benzylamide] | 98 |  |
| CN(Cc1ccccc1)C(=O)[C@H](Cc1ccc2ccccc2c1)NC(=O)C1CCCCC1NC(=O)c1c[nH]c2ccccc12 (stereo partly drawn) [Example 3 fast, N^α [N-(1H-indol-3-yl-carbonyl)-(R,S)cis-2-aminocyclohexyl-carbonyl]-L-3(2-naphthyl)alanyl-N-methyl-N-benzylamide and N^α [N-(1H-indol-3-yl-carbonyl)-(S,R)cis-2-aminocyclohexyl-carbonyl]-L-3(2-naphthyl)alanyl-N-methyl-N-benzylamide] | 100 |  |
| CN(Cc1ccccc1)C(=O)[C@H](Cc1ccccc1)NC(=O)C1CCCCC1NC(=O)c1c[nH]c2ccccc12 (stereo partly drawn) [Example 1 fast, N-methyl-N-benzylamide of N^α -{[N(indol-3-yl-carbonyl)(R,R)-trans-2-amino]cyclohexanoyl}-L-phenylalanine and N-methyl-N-benzylamide of N^α -{[N(indol-3-yl-carbonyl)(S,S)-trans-2-amino]cyclohexanoyl}-L-phenylalamine, reference compound] | 96 |  |
